In paper PMC7016291 (Acta Pharmaceutica Sinica. B, 2019):
Values joined by “and” are separate entries in the source; they are usually repeats but may differ in a detail not shown here. Identical values can stand only once.

Columns and labels:
WT HIV-1 RT = WT HIV-1 RT (Human immunodeficiency virus type 1 group M subtype B, UniProt P03366); assay: HIV-1 RT inhibition assay; assay type: biochemical
HIV-1 RT RNase H = HIV-1 RT RNase H (Human immunodeficiency virus type 1 group M subtype B, UniProt P03366); assay: HIV-1 RT RNase H inhibition; assay type: biochemical
HIV-2 (ROD) = assay: Anti-HIV activity in MT-4 cells; assay type: cell-based; conditions: Human immunodeficiency virus 2, MT4, read-out: EC50 ROD
[1] = Cytotoxicity in uninfected MT-4 cells; assay type: cell-based; conditions: human, uninfected MT-4 cells
[2] = Kinetic aqueous solubility; conditions: kinetic from dmso stock
[3] = tested on: HIV-1 RES056 (K103N/Y181C); assay: Anti-HIV-1 activity against double mutant RES056 in MT-4 cells; assay type: cell-based; conditions: Human immunodeficiency virus 1, MT4, read-out: EC50 RES056
HIV-1 Y188L = assay: Anti-HIV-1 activity against mutant strain Y188L in MT-4 cells; assay type: cell-based; conditions: Human immunodeficiency virus 1, MT4, read-out: EC50 Y188L
HIV-1 K103N = assay: Anti-HIV-1 activity against mutant strain K103N in MT-4 cells; assay type: cell-based; conditions: Human immunodeficiency virus 1, MT4, read-out: EC50 K103N
HIV-1 Y181C = assay: Anti-HIV-1 activity against mutant strain Y181C in MT-4 cells; assay type: cell-based; conditions: Human immunodeficiency virus 1, MT4, read-out: EC50 Y181C
HIV-1 E138K = assay: Anti-HIV-1 activity against mutant strain E138K in MT-4 cells; assay type: cell-based; conditions: Human immunodeficiency virus 1, MT4, read-out: EC50 E138K
HIV-1 L100I = assay: Anti-HIV-1 activity against mutant strain L100I in MT-4 cells; assay type: cell-based; conditions: Human immunodeficiency virus 1, MT4, read-out: EC50 L100I
HIV-1 F227L + V106A = assay: Anti-HIV-1 activity against double mutant F227L + V106A in MT-4 cells; assay type: cell-based; conditions: Human immunodeficiency virus 1, MT4, read-out: EC50 F227L + V106A

Row | Structure (SMILES) | IC50 (WT HIV-1 RT) | IC50 (HIV-1 RT RNase H) | EC50 (HIV-2 (ROD)) | CC50 at 4 days [1] | further results
1 | Cc1cc(-c2ccc(C#N)cc2)cc(C)c1Oc1nc(Nc2ccc(C#N)cc2)nc(NC2CCOCC2)n1 [Compound 5b, 4ʹ-((4-((4-Cyanophenyl)amino)-6-((tetrahydro-2H-pyran-4-yl)amino)-1,3,5-triazin-2-yl)oxy)-3ʹ,5ʹ-dimethyl-[1,1ʹ-biphenyl]-4-carbonitrile] | 0.263 µM | > 1160 µM | 2.03 ± 0.94 µM | > 125 µM | 
2 | Cc1cc(-c2ccc(C#N)cc2)cc(C)c1Oc1nc(NCC2CCOC2)nc(Nc2ccc(C#N)cc2)n1 (centres unmarked) [Compound 5c, 4ʹ-((4-((4-Cyanophenyl)amino)-6-(((tetrahydrofuran-3-yl)methyl)amino)-1,3,5-triazin-2-yl)oxy)-3ʹ,5ʹ-dimethyl-[1,1ʹ-biphenyl]-4-carbonitrile] | 0.216 µM | > 1160 µM | 1.01 ± 0.21 µM | > 125 µM | 
3 | COC(=O)[C@@H]1CCCN1c1nc(Nc2ccc(C#N)cc2)nc(Oc2c(C)cc(-c3ccc(C#N)cc3)cc2C)n1 [Compound 5d, Methyl (4-((4ʹ-cyano-3,5-dimethyl-[1,1ʹ-biphenyl]-4-yl)oxy)-6-((4-cyanophenyl)-amino)-1,3,5-triazin-2-yl)-L-prolinate] | 0.273 µM | > 1100 µM | > 2.23 µM | 2.23 ± 1.09 µM | 
4 | Cc1cc(-c2ccc(C#N)cc2)cc(C)c1Oc1nc(Nc2ccc(C#N)cc2)nc(N2CCOCC2)n1 [Compound 5e, 4ʹ-((4-((4-Cyanophenyl)amino)-6-morpholino-1,3,5-triazin-2-yl)oxy)-3ʹ,5ʹ-dimeth-yl-[1,1ʹ-biphenyl]-4-carbonitrile] | 0.195 µM | 659 µM | 3.61 ± 0.55 µM | > 125 µM | activity against RNase H (HIV-1 RT RNase H): slight activity
5 | Cc1cc(-c2ccc(C#N)cc2)cc(C)c1Oc1nc(Nc2ccc(C#N)cc2)nc(N2CCNCC2)n1 [Compound 5f, 4ʹ-((4-((4-Cyanophenyl)amino)-6-(piperazin-1-yl)-1,3,5-triazin-2-yl)oxy)-3ʹ,5ʹ-dimethyl-[1,1ʹ-biphenyl]-4-carbonitrile] | 0.482 µM | > 1190 µM | > 9.8 µM | 9.8 ± 7.31 µM | 
6 | Cc1cc(-c2ccc(C#N)cc2)cc(C)c1Oc1nc(Nc2ccc(C#N)cc2)nc(N2CCCC2CO)n1 (centres unmarked) [Compound 5g, 4ʹ-((4-((4-Cyanophenyl)amino)-6-(2-(hydroxymethyl)pyrrolidin-1-yl)-1,3,5-triazin-2-yl)oxy)-3ʹ,5ʹ-dimethyl-[1,1ʹ-biphenyl]-4-carbonitrile] | 0.28 µM | > 1160 µM | 1.56 ± 0.49 µM | > 125 µM | 
7 | Cc1cc(-c2ccc(C#N)cc2)cc(C)c1Oc1nc(Nc2ccc(C#N)cc2)nc(N2CCC(O)C2)n1 (centres unmarked) [Compound 5h, 4ʹ-((4-((4-Cyanophenyl)amino)-6-(3-hydroxypyrrolidin-1-yl)-1,3,5-triazin-2-yl)-oxy)-3ʹ,5ʹ-dimethyl-[1,1ʹ-biphenyl]-4-carbonitrile] | 0.161 µM | > 828 µM | 2.91 ± 0.98 µM | 5.72 ± 0.08 µM | solubility kinetic ([2]; FaSSIF): 14.7 µg/mL and 29.2 µM; solubility kinetic ([2]; aqueous solution at pH 2.0, pH 2, aqueous buffer): 3.45 µg/mL and 6.85 µM; solubility kinetic ([2]; aqueous solution at pH 7.0, pH 7, aqueous buffer): < 0.786 µg/mL and < 1.56 µM; solubility kinetic ([2]; aqueous solution at pH 7.4, pH 7.4, aqueous buffer): < 0.786 µg/mL and < 1.56 µM; EC50 [3]: 0.19 ± 0.05 µM; EC50 (HIV-1 Y188L): 0.023 ± 0.006 µM; activity against RNase H (HIV-1 RT RNase H): slight activity; EC50 (HIV-1 K103N): 0.0036 ± 0.0009 µM; EC50 (HIV-1 Y181C): 0.0092 ± 0.0008 µM; EC50 (HIV-1 E138K): 0.0065 ± 0.0006 µM; EC50 (HIV-1 L100I): 0.0082 ± 0.0022 µM; EC50 (HIV-1 F227L + V106A): 0.93 ± 0.11 µM
8 | Cc1cc(-c2ccc(C#N)cc2)cc(C)c1Oc1nc(Nc2ccc(C#N)cc2)nc(N2CCC(O)CC2)n1 [Compound 5i, 4ʹ-((4-((4-Cyanophenyl)amino)-6-(4-hydroxypiperidin-1-yl)-1,3,5-triazin-2-yl)-oxy)-3ʹ,5ʹ-dimethyl-[1,1ʹ-biphenyl]-4-carbonitrile] | 0.282 µM | 500 µM | 1.51 ± 0.26 µM | 14.9 ± 7.89 µM | activity against RNase H (HIV-1 RT RNase H): slight activity
9 | Cc1cc(-c2ccc(C#N)cc2)cc(C)c1Oc1nc(NCCN2CCN(C)CC2)nc(Nc2ccc(C#N)cc2)n1 [Compound 5k, 4ʹ-((4-((4-Cyanophenyl)amino)-6-((2-(4-methylpiperazin-1-yl)ethyl)amino)-1,3,5-triazin-2-yl)oxy)-3ʹ,5ʹ-dimethyl-[1,1ʹ-biphenyl]-4-carbonitrile] | 0.658 µM | > 1070 µM | > 14.1 µM | 14.1 ± 3.47 µM | 
10 | Cc1cc(-c2ccc(C#N)cc2)cc(C)c1Nc1nc(Nc2ccc(C#N)cc2)nc(NC2CC2)n1 [Compound 6a, 4ʹ-((4-((4-Cyanophenyl)amino)-6-(cyclopropylamino)-1,3,5-triazin-2-yl)amino)-3ʹ,5ʹ-dimethyl-[1,1ʹ-biphenyl]-4-carbonitrile] | 0.0741 µM | > 1270 µM | 26.5 µM | > 125 µM | 
11 | Cc1cc(-c2ccc(C#N)cc2)cc(C)c1Nc1nc(Nc2ccc(C#N)cc2)nc(NC2CCOCC2)n1 [Compound 6c, 4ʹ-((4-((4-Cyanophenyl)amino)-6-((tetrahydro-2H-pyran-4-yl)amino)-1,3,5-triazin-2-yl)amino)-3ʹ,5ʹ-dimethyl-[1,1ʹ-biphenyl]-4-carbonitrile] | 0.246 µM | > 1160 µM | 40 µM | > 125 µM | 
12 | Cc1cc(-c2ccc(C#N)cc2)cc(C)c1Nc1nc(NCC2CCOCC2)nc(Nc2ccc(C#N)cc2)n1 [Compound 6d, 4ʹ-((4-((4-Cyanophenyl)amino)-6-(((tetrahydro-2H-pyran-4-yl)methyl)amino)-1,3,5-triazin-2-yl)amino)-3ʹ,5ʹ-dimethyl-[1,1ʹ-biphenyl]-4-carbonitrile] | 0.241 µM | > 1130 µM | 13.8 µM | > 125 µM | 
13 | COC(=O)[C@@H]1CCCN1c1nc(Nc2ccc(C#N)cc2)nc(Nc2c(C)cc(-c3ccc(C#N)cc3)cc2C)n1 [Compound 6f, Methyl (4-((4ʹ-cyano-3,5-dimethyl-[1,1ʹ-biphenyl]-4-yl)amino)-6-((4-cyanophenyl)amino)-1,3,5-triazin-2-yl)-L-prolinate] | 0.253 µM | > 1100 µM | > 125 µM | > 125 µM | 
14 | Cc1cc(-c2ccc(C#N)cc2)cc(C)c1Nc1nc(Nc2ccc(C#N)cc2)nc(N2CCOCC2)n1 [Compound 6g, 4ʹ-((4-((4-Cyanophenyl)amino)-6-morpholino-1,3,5-triazin-2-yl)amino)-3ʹ,5ʹ-dimethyl-[1,1ʹ-biphenyl]-4-carbonitrile] | 0.137 µM | > 1190 µM | 39.9 µM | > 125 µM | 
15 | Cc1cc(-c2ccc(C#N)cc2)cc(C)c1Nc1nc(Nc2ccc(C#N)cc2)nc(N2CCNCC2)n1 [Compound 6h, 4ʹ-((4-((4-Cyanophenyl)amino)-6-(piperazin-1-yl)-1,3,5-triazin-2-yl)amino)-3ʹ,5ʹ-dimethyl-[1,1ʹ-biphenyl]-4-carbonitrile] | 0.341 µM | > 1200 µM | > 9.24 µM | 9.24 ± 5.5 µM | 
16 | Cc1cc(-c2ccc(C#N)cc2)cc(C)c1Nc1nc(Nc2ccc(C#N)cc2)nc(N2CCCC2CO)n1 (centres unmarked) [Compound 6j, 4ʹ-((4-((4-Cyanophenyl)amino)-6-(2-(hydroxymethyl)pyrrolidin-1-yl)-1,3,5-triazin-2-yl)amino)-3ʹ,5ʹ-dimethyl-[1,1ʹ-biphenyl]-4-carbonitrile] | 0.157 µM | > 1160 µM | 15.7 µM | 62.9 ± 7.99 µM | 
17 | Cc1cc(-c2ccc(C#N)cc2)cc(C)c1Nc1nc(Nc2ccc(C#N)cc2)nc(N2CCC(O)CC2)n1 [Compound 6l, 4ʹ-((4-((4-Cyanophenyl)amino)-6-(4-hydroxypiperidin-1-yl)-1,3,5-triazin-2-yl)-amino)-3ʹ,5ʹ-dimethyl-[1,1ʹ-biphenyl]-4-carbonitrile] | 0.223 µM | > 1160 µM | > 5.71 µM | 5.71 ± 3.93 µM | 
18 | Cc1cc(-c2ccc(C#N)cc2)cc(C)c1Nc1nc(NCCN2CCOCC2)nc(Nc2ccc(C#N)cc2)n1 [Compound 6m, 4ʹ-((4-((4-Cyanophenyl)amino)-6-((2-morpholinoethyl)amino)-1,3,5-triazin-2-yl)-amino)-3ʹ,5ʹ-dimethyl-[1,1ʹ-biphenyl]-4-carbonitrile] | 0.176 µM | > 995 µM | > 13.9 µM | 13.9 ± 10.7 µM | 
19 | Cc1cc(-c2ccc(C#N)cc2)cc(C)c1Nc1nc(NCCN2CCN(C)CC2)nc(Nc2ccc(C#N)cc2)n1 [Compound 6n, 4ʹ-((4-((4-Cyanophenyl)amino)-6-((2-(4-methylpiperazin-1-yl)ethyl)amino)-1,3,5-triazin-2-yl)amino)-3ʹ,5ʹ-dimethyl-[1,1ʹ-biphenyl]-4-carbonitrile] | 0.156 µM | > 1070 µM | > 2.34 µM | 2.34 ± 0.64 µM | 
20 | Cc1ccnc2c1NC(=O)c1cccnc1N2C1CC1 [NVP, nevirapine, reference compound] |  |  |  | > 4 µg/mL | EC50 [3]: > 4 µM; EC50 (HIV-1 Y188L): > 4 µM; EC50 (HIV-1 K103N): 3.19 ± 3.9 µM; EC50 (HIV-1 Y181C): > 4 µM; EC50 (HIV-1 E138K): 0.057 ± 0.006 µM; EC50 (HIV-1 L100I): 0.46 ± 0.11 µM; EC50 (HIV-1 F227L + V106A): > 4 µM
